Source: patent publication US7105534B2, “Imidazo[1,2-α]pyridine ether compounds as ion channel modulators” (Cardiome Pharma Corp., priority 2000, dated 2006)

Experiments:
[1] = test system: anesthetized rats subjected to coronary artery occlusion; experiment: Antiarrhythmic efficacy: arrhythmias after coronary artery occlusion in anesthetized rats; format: in vivo, rat; conditions: i.v. infusion
Excerpt: Antiarrhythmic efficacy may be assessed by investigating the effect of a compound on the incidence of cardiac arrhythmias in anesthetized rats subjected to coronary artery occlusion. Rats weighing 200–300 gms are subjected to preparative surgery and assigned to groups in a random block design. In each case, the animal is anesthetized with pentobarbital during surgical preparation. The left carotid artery is cannulated for measurement of mean arterial blood pressure and withdrawal of blood samples. The left jugular vein is also cannulated for injection of drugs. The thoracic cavity is opened and a polyethylene occluder loosely placed around the left anterior descending coronary artery. The thoracic cavity is then closed. An ECG is recorded by insertion of electrodes placed along the anatomical axis of the heart. […] ECG, arrhythmias, blood pressure, heart rate and mortality are monitored for 15 minutes after occlusion. Arrhythmias are recorded as ventricular tachycardia (VT) and ventricular fibrillation (VF) and scored according to Curtis, M. J. and Walker, M. J. A., Cardiovasc. […]
Occlusion is associated with R-wave height and “S-T” segment elevation; and an occluded zone (measured after death by cardiogreen dye perfusion) in the range of 25%–50% of total left-ventricular weight.
Results of the test compounds may be expressed as values of a given infusion rate in micromol/kg/min. […]

Kv1.5 = target: T1, Kv1.5 (Homo sapiens, UniProt P22460); experiment: Patch-clamp inhibition of cloned ion channel current in transfected HEK cells: Kv1.5; format: cell-based; conditions: steady-state current, -80 mV to +60 mV
T1 construct: expressed in transfected cells; host or cells: HEK cells, transient transfection, vector pCDNA3
T1 sequence (P22460 whole entry): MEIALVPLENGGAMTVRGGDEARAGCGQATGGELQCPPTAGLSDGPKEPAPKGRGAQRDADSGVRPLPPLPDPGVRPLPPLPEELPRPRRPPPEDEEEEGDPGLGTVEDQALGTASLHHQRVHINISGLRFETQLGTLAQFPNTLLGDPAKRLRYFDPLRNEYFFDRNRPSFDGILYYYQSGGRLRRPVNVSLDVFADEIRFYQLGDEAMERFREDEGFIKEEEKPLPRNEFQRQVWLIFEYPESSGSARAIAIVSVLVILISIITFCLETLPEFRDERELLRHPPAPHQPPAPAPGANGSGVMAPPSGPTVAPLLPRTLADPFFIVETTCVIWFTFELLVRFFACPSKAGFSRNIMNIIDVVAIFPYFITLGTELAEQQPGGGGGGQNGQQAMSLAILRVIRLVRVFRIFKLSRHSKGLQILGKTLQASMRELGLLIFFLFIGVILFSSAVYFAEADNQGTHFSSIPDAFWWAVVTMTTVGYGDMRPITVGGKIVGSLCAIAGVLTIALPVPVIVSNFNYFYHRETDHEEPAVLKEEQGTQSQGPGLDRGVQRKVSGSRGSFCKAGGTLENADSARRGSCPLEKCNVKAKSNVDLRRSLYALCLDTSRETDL
Summary of the method: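 Whole-cell patch clamp at 22–23 °C on transiently transfected HEK cells, compound 0.5–100 μM, pulses every 4 s. Na+: peak current, −100 mV holding, −30 mV for 10 ms; Kv1.5 (steady-state) and Kv4.2 (integrated): −80 mV holding, +60 mV for 200 ms. IC50 by Hill fit, 4–6 cells.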

Kv4.2 = target: T2, Kv4.2 (Homo sapiens, UniProt Q9NZV8); experiment: Patch-clamp inhibition of cloned ion channel current in transfected HEK cells: Kv4.2; format: cell-based; conditions: integrated current, -80 mV to +60 mV
T2 construct: expressed in transfected cells; host or cells: HEK cells, transient transfection, vector pCDNA3
T2 sequence (Q9NZV8 1-630): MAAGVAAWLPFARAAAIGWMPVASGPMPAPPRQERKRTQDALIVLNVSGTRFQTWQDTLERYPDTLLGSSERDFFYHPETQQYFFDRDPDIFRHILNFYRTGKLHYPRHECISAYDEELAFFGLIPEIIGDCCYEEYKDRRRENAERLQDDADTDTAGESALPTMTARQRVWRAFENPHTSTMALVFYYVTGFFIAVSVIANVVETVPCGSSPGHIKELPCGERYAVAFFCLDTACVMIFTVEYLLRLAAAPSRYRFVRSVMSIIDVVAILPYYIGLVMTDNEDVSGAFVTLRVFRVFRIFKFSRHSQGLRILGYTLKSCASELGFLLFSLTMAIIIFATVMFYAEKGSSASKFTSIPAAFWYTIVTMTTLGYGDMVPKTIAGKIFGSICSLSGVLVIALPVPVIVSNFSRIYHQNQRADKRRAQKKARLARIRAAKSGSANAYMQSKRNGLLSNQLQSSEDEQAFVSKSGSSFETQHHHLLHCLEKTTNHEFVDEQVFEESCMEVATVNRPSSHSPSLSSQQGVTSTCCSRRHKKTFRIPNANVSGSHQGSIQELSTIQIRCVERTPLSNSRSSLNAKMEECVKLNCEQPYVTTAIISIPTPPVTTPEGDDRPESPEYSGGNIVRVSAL
Experimental: The relevant cloned ion channels (e.g. cardiac hH1, Kv1.4, Kv1.5, Kv4.2, Kv2.1, HERG etc.) are studied by transient transfection into HEK cells using the mammalian expression vector pCDNA3. Transfections for each channel type are carried out separately to allow individual study of the ion channel of interest. Cells expressing channel protein are detected by cotransfecting cells with the vector pHook-1 (Invitrogen, San Diego, Calif., USA). […] Equal concentrations of individual channel and pHook DNA are incubated with 10× concentration of lipofectAce in Modified Eagle's Medium (MEM, Canadian Life Technologies) and incubated with parent HEK cells plated on 25 mm culture dishes. After 3–4 hours the solution is replaced with a standard culture medium plus 20% fetal bovine serum and 1% antimycotic. Transfected cells are maintained at 37C in an air/5% CO2 incubator in 25 mm Petri dishes plated on glass coverslips for 24–48 hours to allow channel expression to occur. 20 min prior to experiments, cells are treated with beads coated with phOX. After 15 min, excess beads are […] off with cell culture medium and cells which had beads stuck to them are used for electrophysiological tests.
For whole-cell recording the control pipette filling solution contained (in mM): KCl, 130; EGTA, 5; MgCl2, 1; HEPES, 10; Na2ATP, 4; GTP, 0.1; and is adjusted to pH 7.2 with KOH. The control bath solution contained (in mM): NaCl, 135; KCI, 5; sodium acetate, 2.8; MgCl2, 1; HEPES, 10; CaCl2, 1; and is adjusted to pH 7.4 with NaOH. The test ion channel modulating compound is dissolved to 10 mM stock solutions in water and used at concentrations between 0.5 and 100 μM.
Coverslips containing cells are removed from the incubator before experiments and placed in a superfusion chamber (volume 250 μl) containing the control bath solution at 22C to 23C. All recordings are made via the variations of the patch-clamp technique, using an Axopatch 200A amplifier (Axon Instruments, CA). Patch electrodes are pulled from thin-walled borosilicate glass (World Precision Instruments; FL) on a horizontal micropipette puller, fire-polished, and filled with appropriate solutions. Electrodes had resistances of […] when filled with control filling solution. Analog capacity compensation is used in all whole cell measurements. In some experiments, leak subtraction is applied to data. Membrane potentials have not been corrected for any junctional potentials that arose between the pipette and bath solution. Data are filtered at 5 to 10 kHz before digitization and stored on a microcomputer for later analysis using the pClamp6 software (Axon Instruments, Foster City, Calif.). Due to the high level of expression of channel cDNA's in HEK cells, there is no need for signal averaging. The average cell capacitance is quite small, and the absence of ionic current at negative membrane potentials allowed faithful leak subtraction of data.
The concentration-response curves for changes in peak and steady-state current produced by the test compound are computer-fitted to the Hill equation: f=1−1/[1+([…])^n] [1]
where f is the fractional current (f=Idrug/Icontrol) at drug concentration [D]; IC50 is the concentration producing half-maximal inhibition and n is the Hill coefficient.
Compounds of the present invention may be evaluated by this method. […] Block is determined from the decrease in peak hH1 Na^+ current, or in steady-state Kv1.5 and integrated Kv4.2 current in the presence of drug. To record Na^+ current, cells are depolarized from the holding potential of −100 mV to a voltage of −30 mV for 10 ms to fully open and inactivate the channel. To record Kv1.5 and Kv4.2 current, cells are depolarized from the holding potential of −80 mV to a voltage of +60 mV for 200 ms to fully open the channel. Currents are recorded in the steady-state at a range of drug concentrations during stimulation every 4 s. […]

- IC50 (Kv1.5): 6 µM
- IC50 (Kv4.2): 13 µM
SMILES: COc1ccc(CCCOc2cccn3cc(C)nc23)cc1OC [Compound 3, 8-[3-(3,4-DIMETHOXYPHENYL)PROPOXY]-2-METHYLIMIDAZO[1,2-α]PYRIDINE MONOHYDROCHLORDE]
- ED50AA (infusion rate reducing arrhythmia score to 50% of vehicle-treated animals) [1]: 5 µmol/kg/min
